The values below come from patent US10342796B2, “Acrylanilide derivative, preparation method, and applications thereof in pharmacy” (Ancureall Pharmaceutical (Shanghai) Co., Ltd., priority 2015, dated 2019).

Read-outs that look alike come from different tables or passages of the source.

For data set [1], the system named is SNU1040 (HER2 V777M positive). In words: Growth inhibition GI50 in vitro (CCK8/MTT, 72 h). Type of data set: cell-based. The note with it: Homo sapiens, read-out: GI50 SNU-1040 (HER2 V777M).
The subject of data set [2] is MV4-11 (FLT3-ITD). In words: Growth inhibition GI50 in vitro (CCK8/MTT, 72 h). Type of data set: cell-based, human. The settings on record: for GI50: Homo sapiens, MV4-11, FLT3-ITD; for inhibition effects: FLT3-ITD+ MV4-11 cells. On the procedure: FLT3 is a kind of PTK and about 20-30% of patients with acute myelocytic leukemia (AML) in clinic express FLT3-ITD mutation protein. FLT3-ITD positive cell line MV4-11 was cultured with 1×RPMI1640 complete medium (supplement with 10% FBS).
(§1) The suspension cells were collected by centrifugation. The supernatant was discard and the cell pellet was resuspended and counted. Different cell concentrations (5˜10×10^4 cells/mL) were prepared according to the growth cycle of each cell line and then seeded on a 96-well plate (Corning), 100 μL/well. The cells were incubated over night at 37° C., 5% CO2. The compounds were added to the cells on the second day with 2 wells in parallel. The final concentration of organic solvent shall not exceed 1%. The cells were continually incubated for 72 h, and then subjected to MTT assay.
(§2) The present compounds and the reference compounds were dissolved with DMSO (Sigma), respectively. […] The storage concentration of compounds was 10 mM and kept at −20° C. They were diluted by 2 times or 10 times with serial dilution before using.
(§3) Dojindo CCK8 reagent kit was used as MTT assay. […] FC meter was used as microplate reader.
(§4) Adherent cell culture medium was discard and immediately replaced with fresh prepared medium which contains 10% CCK8 reagent (100 μL/well). For the suspension cells, CCK8 was directly added to 10% of the final concentration. The cells were continually incubated for 1˜4 h. When the color of control wells turned to dark yellow, the absorption value was measured at OD450 nm. The cell growth rate was calculated according to the following formula: cell growth rate (%)=100*(T−T0)/(C−T0), T=optical density of drug treatment cell well—optical density of blank control well; T0=optical density of cell well before drug treatment—optical density of blank control well; C=optical density of cell well of solvent control group—optical density of blank control well. […] The experiment was independently repeated 1˜3 times, and subject to biological statistical analysis.
(§5) Growth inhibition assay was conducted in the cell lines shown Table 14 with the different oncogene mutations. Each compound started at 1000 nM as an initial concentration and was diluted by 2 times with serial dilution to 0.03 nM.

Data set [3] relates to K562 (BCR-ABL). In words: Growth inhibition GI50 in vitro (CCK8/MTT, 72 h). Type of data set: cell-based. The note with it: Homo sapiens. The procedure: Human leukemia cell line K562 (expressing BCR-ABL fusion protein) (ATCC) was cultured with 1×RPMI1640 complete medium (supplement with 10% FBS).
as §1, §2, §3, §4, §5

For data set [4], the system named is HCT116 (EGFR wt, Kras G13D). In words: Growth inhibition GI50 in vitro (CCK8/MTT, 72 h). The note with it: Homo sapiens, HCT-116. Type of data set: cell-based. On the procedure: as §1, §2, §3, §4, §5
Data set [5] is described as follows: Pharmacokinetics in rat. Type of data set: in vivo, Sprague-Dawley (SD) rats. The note with it: male, Sprague-Dawley, plasma, SD rat, iv 5 mg/kg, solvent water. The procedure:
Sprague-Dawley (SD) rats (male) were purchased from Shanghai SIPPR BK Laboratory Animals Co. and kept under specific pathogen-free conditions adaptively for 7 days in the Shanghai University of Traditional Chinese Medicine animal care facility (All animal studies were conducted with the approval of the University Ethics Committee). The rats were randomly divided to 2 groups (3 rats/group) for each compound. One group was administrated by tail vein injection (iv) and the other group was intragastrically administrated. The compound was formulated into a clear aqueous solution with methanesulfonic acid, PH>3.5. The rats were starved for 12 hours before drug administration and the blood samples were collected from the orbital plexus at 0 min (before drug administration), 2 min, 5 min, 15 min, 30 min, 1 h, 2 h, 4 h, 6 h, 8 h and 24 h, respectively. Each blood sample was added to a 1.5 mL centrifuge tube with heparin sodium and then centrifuged at 8000 rpm at 4° C. for 3 min. Upper blood serum was collected. The compound concentration in plasma was determined by LC-MS/MS. The pharmacokinetics parameters were calculated with the professional pharmacokinetics software WinNonlin. The experiment was repeated once.

Setting [6] is: Table 16, 1000 nM to 0.03 nM serial dilution.
The mark [7] stands for this setting: HCT116, EGFR wt, Kras G13D, read-out: GI50.

For the compound `C=CC(=O)Nc1cc(Nc2cc(Nc3cc(OC)c(Cl)cc3Cl)ncn2)c(OC)cc1N(C)CCN(C)C` [Compound 136, N-(5-(6-(2,4-dichloro-5-methoxyl-phenylamino)-pyrimidin-4-ylamino)-2-((2-dimethylamino-ethyl)-methyl-amino)-4-methoxyl-phenyl)-acrylamide], the GI50 – broadly, the concentration at which growth is held to half of that of the control – in data set [1] (setting [6]) came out at 0.0162 µM.
As to `C=CC(=O)Nc1cc(Nc2ncc(Cl)c(Nc3ccc(OCc4ccccn4)c(Cl)c3)n2)c(OC)cc1N(C)CCN(C)C` [Compound 19, N-(5-(5-chloro-4-(3-chloro-4-(pyridin-2-methoxyl)phenylamino)-pyrimidin-2-ylamino)-2-((2-(dimethylamino)ethyl)(methyl)amino)-4-methoxyl-phenyl)-acrylamide], the GI50 in data set [2], in data set [3] and in data set [4] (setting [7]) was > 1 µM throughout.
Turning to `C=CC(=O)Nc1cc(Nc2nccc(-c3cn(C)c4ccccc34)n2)c(OC)cc1N(C)CCN(C)C` [AZD9291, reference compound], the GI50 in data set [2] was > 1 µM; in data set [3], > 1 µM; in data set [1] it was 0.156 µM; in data set [4], > 1 µM.
As for `C=CC(=O)Nc1cc(Nc2nccc(-n3ccc4ccc(F)cc43)n2)c(OC)cc1N(C)CCN(C)C` [Compound 63, N-(5-(4-(6-fluoro-1H-indol-1-yl)-pyrimidin-2-ylamino)-2-((2-(dimethylamino)ethyl)-methyl-amino)-4-methoxyl-phenyl)-acrylamide], the bioavailability – broadly, dose-corrected exposure relative to a reference, in per cent – in data set [5] (po 25 mg/kg) was determined as 55.8%.
Regarding `C=CC(=O)Nc1cc(Nc2nccc(-n3ccc4c(OCCOC)cccc43)n2)c(OC)cc1N(C)CCN(C)C` [Compound 205, N-(5-(4-(4-(2-methoxyl-ethoxyl)-1H-indol-1-yl)-pyrimidin-2-ylamino)-2-(2-(dimethylamino-ethyl)-methyl-amino)-4-methoxyl-phenyl)-acrylamide], in data set [1] (setting [6]), the GI50 was 0.0143 µM.
As for `C=CC(=O)Nc1cc(Nc2nccc(-n3cnc4ccccc43)n2)c(OC)cc1N(C)CCN(C)C` [Compound 106], the GI50 in data set [2], in data set [3] and in data set [4] (setting [7]) was > 1 µM each time.
For the compound `C=CC(=O)Nc1cc(Nc2nccc(Nc3cccc(Cl)c3)n2)c(OC)cc1N(C)CCN(C)C` [Compound 2, N-(5-(4-(3-chloro-phenylamino)-pyrimidin-2-ylamino)-2-(2-(dimethylamino-ethyl)-methyl-amino)-4-methoxyl-phenyl)-acrylamide], the GI50 in data set [2], in data set [3] and in data set [4] (setting [7]) was > 1 µM throughout.
As to `C=CC(=O)Nc1cc(Nc2cc(Nc3ccc(F)c(Cl)c3)ncn2)c(OC)cc1N(C)CCN(C)C` [Compound 140, N-(5-(6-(3-chloro-4-fluoro-phenylamino)-pyrimidin-4-ylamino)-2-((2-dimethylamino-ethyl)-methyl-amino)-4-methoxyl-phenyl)-acrylamide], in data set [2], the “inhibition effects” value was “moderate inhibition effects”. For the same compound, the GI50 in data set [2], in data set [3] and in data set [4] (setting [7]) was > 1 µM each time.
Consider `C=CC(=O)Nc1cc(Nc2ncnc(Nc3cccc(Br)c3)n2)c(OC)cc1N1CCC(N2CCCC2)CC1` [Compound 118], for which the “inhibition effects” value in data set [2] is listed as “moderate inhibition effects”. The figures for the GI50 in data set [2], in data set [3] and in data set [4] (setting [7]) were 0.156 µM, > 1 µM and > 1 µM, respectively.
For `C=CC(=O)Nc1cc(Nc2nccc(Nc3ccc(OCc4ccccn4)c(Cl)c3)n2)c(OC)cc1N(C)CCN(C)C` [Compound 18, N-(5-(4-(3-chloro-4-(pyridin-2-methoxyl)phenylamino)pyrimidin-2-ylamino)-2-((2-(dimethylamino)ethyl)(methyl)amino)-4-methoxyl-phenyl)-acrylamide], the bioavailability in data set [5] (po 25 mg/kg) was 50.3%. The GI50 in data set [2], in data set [3] and in data set [4] (setting [7]) was > 1 µM throughout.
As to `C=CC(=O)Nc1cc(Nc2cc(Nc3cc(F)c(OC)c(Cl)c3)ncn2)c(OC)cc1N(C)CCN(C)C` [Compound 236, N-(5-(6-(3-chloro-5-fluoro-4-methoxyphenylamino)-pyrimidin-4-yl-amino)-2-((2-dimethylamino-ethyl)-methyl-amino)-4-methoxyl-phenyl)-acrylamide], in data set [1] (setting [6]), the 50% growth inhibitory concentration (GI50) was 0.00542 µM.
For `C=CC(=O)Nc1cc(Nc2ncnc(Nc3cccc(F)c3)n2)c(OC)cc1N(C)CCN(C)C` [Compound 114, N-(5-(4-(3-fluoro-phenylamino)-[1,3,5]triazin-2-ylamino)-2-((2-dimethylamino-ethyl)-methyl-amino)-4-methoxyl-phenyl)-acrylamide], in data set [2], the “inhibition effects” value is recorded as “moderate inhibition effects”. Besides, the GI50 is 0.124 µM in data set [2], > 1 µM in data set [3] and > 1 µM in data set [4] (setting [7]).
`C=CC(=O)Nc1cc(Nc2cc(Nc3ccc(F)c(Cl)c3)ncn2)c(OC)cc1N1CCN(C2CCN(C)CC2)CC1` [Compound 147, N-(5-(6-(3-chloro-4-fluoro-phenylamino)-pyrimidin-4-ylamino)-4-methoxyl-2-(4-(1-methylpiperidin-4-yl)-piperazin-1-yl)-phenyl)-acrylamide]: the GI50 in data set [2], in data set [3] and in data set [4] (setting [7]) was > 1 µM throughout.
In turn, `C=CC(=O)Nc1cc(Nc2nccc(-n3ccc4c(OC)cccc43)n2)c(OC)cc1N(C)CCN(C)C` [Compound 99, N-(5-(4-(4-methoxyl-1H-indol-1-yl)-pyrimidin-2-ylamino)-2-(2-(dimethylamino-ethyl)-methyl-amino)-4-methoxyl-phenyl)-acrylamide] displayed a bioavailability in data set [5] (po 50 mg/kg) of 40.9%. The GI50 in data set [1] (setting [6]) is 0.0195 µM.
Turning to `C=CC(=O)Nc1cc(Nc2cc(-c3cn(C(C)C)c4ccccc34)ncn2)c(OC)cc1N(C)CCN(C)C` [Compound 183], in data set [2], the “inhibition effects” value is “moderate inhibition effects”. Besides, the GI50 in data set [2], in data set [3] and in data set [4] (setting [7]) was > 1 µM in each case.
